# According to patent US20200405697A1, “Antitumor Agent” (Taiho Pharmaceutical Co., Ltd, priority 2017, published 2020):
# Target: T1, human RNR (histidine tagged human M1 and human M2 proteins) (Homo sapiens, UniProt P23921)
# T1 construct: made in house; host or cells: Escherichia coli
# T1 sequence (P23921 1-792): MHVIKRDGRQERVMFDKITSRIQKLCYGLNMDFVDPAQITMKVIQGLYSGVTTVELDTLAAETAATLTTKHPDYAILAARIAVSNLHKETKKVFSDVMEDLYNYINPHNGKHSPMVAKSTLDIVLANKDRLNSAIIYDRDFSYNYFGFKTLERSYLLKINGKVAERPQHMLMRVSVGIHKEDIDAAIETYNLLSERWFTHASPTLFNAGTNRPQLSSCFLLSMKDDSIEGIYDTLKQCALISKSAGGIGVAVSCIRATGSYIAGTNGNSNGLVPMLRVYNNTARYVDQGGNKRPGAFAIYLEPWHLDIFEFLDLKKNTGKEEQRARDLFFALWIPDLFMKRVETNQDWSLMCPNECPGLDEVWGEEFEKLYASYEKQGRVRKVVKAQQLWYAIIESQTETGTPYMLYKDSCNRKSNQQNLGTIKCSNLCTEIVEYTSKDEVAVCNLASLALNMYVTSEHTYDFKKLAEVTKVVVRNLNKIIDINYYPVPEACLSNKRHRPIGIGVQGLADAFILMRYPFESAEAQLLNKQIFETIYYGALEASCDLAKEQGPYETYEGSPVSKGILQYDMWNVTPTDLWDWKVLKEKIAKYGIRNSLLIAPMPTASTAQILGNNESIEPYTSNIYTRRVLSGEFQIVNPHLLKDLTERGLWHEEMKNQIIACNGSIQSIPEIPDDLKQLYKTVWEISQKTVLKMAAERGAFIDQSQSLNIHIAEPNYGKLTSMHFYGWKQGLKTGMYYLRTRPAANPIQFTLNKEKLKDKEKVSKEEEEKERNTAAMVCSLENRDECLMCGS
# Test: Human RNR inhibition effect (dCDP formation from CDP)
# Type: biochemical
# Details: 10 μM CDP, 37° C. for 30 minutes, read-out: RNR inhibitory activity IC50
# Outline: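 His-tagged human M1 (isoform 1) and N-terminal 59-aa-truncated M2 (isoform 2), E. coli-expressed, Ni-purified, preincubated 20 min with compound (1% DMSO). Reaction with 10 μM CDP, 2 mM ATP, 0.24 mM NADPH, 6 mM DTT, 4 mM Mg acetate, 100 mM KCl, 50 mM HEPES pH 7.2, 30 min at 37° C. dCDP formed quantified by reverse-phase HPLC after heat stop.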
row,IC50 [nM],SMILES
1,120,"Cc1ccc(F)c([C@@H](C)[C@H](NS(=O)(=O)c2cc(F)c(Cl)cc2C(N)=O)c2n[nH]c(=O)o2)c1C [Example 255, 5-chloro-4-fluoro-2-(N-((1S,2R)-2-(6-fluoro-2,3-dimethylphenyl)-1-(5-oxo-4,5-dihydro-1,3,4-oxadiazol-2-yl)propyl)sulfamoyl)benzamide]"
2,420,"Cc1ccc(F)c([C@@H](C)[C@H](NS(=O)(=O)c2c(Cl)cc(Cl)cc2C(N)=O)c2n[nH]c(=O)o2)c1C [Example 256, 3,5-dichloro-2-(N-((1S,2R)-2-(6-fluoro-2,3-dimethylphenyl)-1-(5-oxo-4,5-dihydro-1,3,4-oxadiazol-2-yl)propyl)sulfamoyl)benzamide]"
3,100,"Cc1cc(S(=O)(=O)N[C@H](c2n[nH]c(=O)o2)[C@H](C)c2c(F)ccc(C)c2C)c(C(N)=O)cc1Cl [Example 257, 5-chloro-2-(N-((1S,2R)-2-(6-fluoro-2,3-dimethylphenyl)-1-(5-oxo-4,5-dihydro-1,3,4-oxadiazol-2-yl)propyl)sulfamoyl)-4-methylbenzamide]"
4,140,"Cc1ccc(F)c([C@@H](C)[C@H](NS(=O)(=O)c2c(F)cc(Cl)cc2C(N)=O)c2n[nH]c(=O)o2)c1C [Example 258, 5-chloro-3-fluoro-2-(N-((1S,2R)-2-(6-fluoro-2,3-dimethylphenyl)-1-(5-oxo-4,5-dihydro-1,3,4-oxadiazol-2-yl)propyl)sulfamoyl)benzamide]"
5,100,"COc1cc(S(=O)(=O)N[C@H](c2n[nH]c(=O)o2)[C@H](C)c2c(F)ccc(C)c2C)c(C(N)=O)cc1Cl [Example 259, 5-chloro-2-(N-((1S,2R)-2-(6-fluoro-2,3-dimethylphenyl)-1-(5-oxo-4,5-dihydro-1,3,4-oxadiazol-2-yl)propyl)sulfamoyl)-4-methoxybenzamide]"
6,360,"COc1cc(C(N)=O)c(S(=O)(=O)N[C@H](c2n[nH]c(=O)o2)[C@H](C)c2c(F)ccc(C)c2C)cc1OC [Example 260, 2-(N-((1S,2R)-2-(6-fluoro-2,3-dimethylphenyl)-1-(5-oxo-4,5-dihydro-1,3,4-oxadiazol-2-yl)propyl)sulfamoyl)-4,5-dimethoxybenzamide]"
7,90,"Cc1ccc(F)c([C@@H](C)[C@H](NS(=O)(=O)c2cc3c(cc2C(N)=O)OCCO3)c2n[nH]c(=O)o2)c1C [Example 261, 7-(N-((1S,2R)-2-(6-fluoro-2,3-dimethylphenyl)-1-(5-oxo-4,5-dihydro-1,3,4-oxadiazol-2-yl)propyl)sulfamoyl)-2,3-dihydrobenzo[b][1,4]dioxin-6-carboxamide]"
8,130,"Cc1ccc(F)c([C@@H](C)[C@H](NS(=O)(=O)c2cc([N+](=O)[O-])c(Cl)cc2C(N)=O)c2n[nH]c(=O)o2)c1C [Example 262, 5-chloro-2-(N-((1S,2R)-2-(6-fluoro-2,3-dimethylphenyl)-1-(5-oxo-4,5-dihydro-1,3,4-oxadiazol-2-yl)propyl)sulfamoyl)-4-nitrobenzamide]"
9,70,"Cc1ccc(F)c([C@@H](C)[C@H](NS(=O)(=O)c2cc(OCC(F)F)ccc2C(N)=O)c2n[nH]c(=O)o2)c1C [Example 263, 4-(2,2-difluoroethoxy)-2-(N-((1S,2R)-2-(6-fluoro-2,3-dimethylphenyl)-1-(5-oxo-4,5-dihydro-1,3,4-oxadiazol-2-yl)propyl)sulfamoyl)benzamide]"
10,60,"Cc1c(Br)ccc(F)c1[C@@H](C)[C@H](NS(=O)(=O)c1ncc(Cl)cc1C(N)=O)c1n[nH]c(=O)o1 [Example 264, 2-(N-((1S,2R)-2-(3-bromo-6-fluoro-2-methylphenyl)-1-(5-oxo-4,5-dihydro-1,3,4-oxadiazol-2-yl)propyl)sulfamoyl)-5-chloronicotinamide]"
11,260,"COc1cc(N)ccc1S(=O)(=O)N[C@H](c1n[nH]c(=O)o1)[C@H](C)c1c(F)ccc2ccccc12 [Example 265, 4-amino-N-((1S,2R)-2-(2-fluoronaphthalen-1-yl)-1-(5-oxo-4,5-dihydro-1,3,4-oxadiazol-2-yl)propyl)-2-methoxybenzenesulfonamide]"
12,850,"C[C@H](c1cccc2c1CCCC2)[C@H](NS(=O)(=O)c1ccc(N)cc1)c1n[nH]c(=O)o1 [Example 266, 4-amino-N-((1S,2R)-1-(5-oxo-4,5-dihydro-1,3,4-oxadiazol-2-yl)-2-(5,6,7,8-tetrahydronaphthalen-1-yl)propyl)benzenesulfonamide]"
13,510,"COc1cc(N)ccc1S(=O)(=O)N[C@H](c1n[nH]c(=O)o1)[C@H](C)c1cccc2cccc(C)c12 [Example 269, 4-amino-2-methoxy-N-((1S,2R)-2-(8-methylnaphthalen-1-yl)-1-(5-oxo-4,5-dihydro-1,3,4-oxadiazol-2-yl)propyl)benzenesulfonamide]"
14,730,"COc1cc(N)ccc1S(=O)(=O)N[C@H](c1n[nH]c(=O)o1)[C@H](C)c1cccc2c1CCC2 [Example 270, 4-amino-N-((1S,2R)-2-(2,3-dihydro-1H-inden-4-yl)-1-(5-oxo-4,5-dihydro-1,3,4-oxadiazol-2-yl)propyl)-2-methoxybenzenesulfonamide]"
15,230,"Cc1ccc(F)c([C@@H](C)[C@H](NS(=O)(=O)c2ccc(Cl)cc2N)c2n[nH]c(=O)o2)c1C [Example 271, 2-amino-4-chloro-N-((1S,2R)-2-(6-fluoro-2,3-dimethylphenyl)-1-(5-oxo-4,5-dihydro-1,3,4-oxadiazol-2-yl)propyl)benzenesulfonamide]"
16,660,"COC(=O)c1cc(Cl)c(N)cc1S(=O)(=O)N[C@H](c1n[nH]c(=O)o1)[C@H](C)c1c(F)ccc(C)c1C [Example 272, methyl 4-amino-5-chloro-2-(N-((1S,2R)-2-(6-fluoro-2,3-dimethylphenyl)-1-(5-oxo-4,5-dihydro-1,3,4-oxadiazol-2-yl)propyl)sulfamoyl)benzoate]"
17,130,"Cc1ccc(F)c([C@@H](C)[C@H](NS(=O)(=O)c2ccc(Cl)c3c2OCC(=O)N3CCO)c2n[nH]c(=O)o2)c1C [Example 273, 5-chloro-N-((1S,2R)-2-(6-fluoro-2,3-dimethylphenyl)-1-(5-oxo-4,5-dihydro-1,3,4-oxadiazol-2-yl)propyl)-4-(2-hydroxyethyl)-3-oxo-3,4-dihydro-2H-benzo[b][1,4]oxazine-8-sulfonamide]"
18,440,"CC(=O)Nc1cc(Cl)ccc1S(=O)(=O)N[C@H](c1n[nH]c(=O)o1)[C@H](C)c1c(F)ccc(C)c1C [Example 274, N-(5-chloro-2-(N-((1S,2R)-2-(6-fluoro-2,3-dimethylphenyl)-1-(5-oxo-4,5-dihydro-1,3,4-oxadiazol-2-yl)propyl)sulfamoyl)phenyl)acetamide]"
19,100,"Cc1ccc(F)c([C@@H](C)[C@H](NS(=O)(=O)c2ccc(Cl)c3c2OCCN3)c2n[nH]c(=O)o2)c1C [Example 275, 5-chloro-N-((1S,2R)-2-(6-fluoro-2,3-dimethylphenyl)-1-(5-oxo-4,5-dihydro-1,3,4-oxadiazol-2-yl)propyl)-3,4-dihydro-2H-benzo[b][1,4]oxazine-8-sulfonamide]"
20,370,"CNC(=O)c1cc(Cl)ccc1S(=O)(=O)N[C@H](c1n[nH]c(=O)o1)[C@H](C)c1c(F)ccc(C)c1C [Example 277, 5-chloro-2-(N-((1S,2R)-2-(6-fluoro-2,3-dimethylphenyl)-1-(5-oxo-4,5-dihydro-1,3,4-oxadiazol-2-yl)propyl)sulfamoyl)-N-methylbenzamide]"
21,130,"Cc1ccc(F)c([C@@H](C)[C@H](NS(=O)(=O)c2ccc(Cl)c3c2OCCC3N)c2n[nH]c(=O)o2)c1C (stereo partly drawn) [Example 278, 4-amino-5-chloro-N-((1S,2R)-2-(6-fluoro-2,3-dimethylphenyl)-1-(5-oxo-4,5-dihydro-1,3,4-oxadiazol-2-yl)propyl)chroman-8-sulfonamide]"
22,420,"Cc1ccc(F)c([C@@H](C)[C@H](NS(=O)(=O)c2cccc3c2OCCN3)c2n[nH]c(=O)o2)c1C [Example 280, N-((1S,2R)-2-(6-fluoro-2,3-dimethylphenyl)-1-(5-oxo-4,5-dihydro-1,3,4-oxadiazol-2-yl)propyl)-3,4-dihydro-2H-benzo[b][1,4]oxazine-8-sulfonamide]"
23,760,"Cc1ccc(F)c([C@@H](C)[C@H](NS(=O)(=O)c2cccc3c2CCNC3)c2n[nH]c(=O)o2)c1C [Example 281, N-((1S,2R)-2-(6-fluoro-2,3-dimethylphenyl)-1-(5-oxo-4,5-dihydro-1,3,4-oxadiazol-2-yl)propyl)-1,2,3,4-tetrahydroisoquinoline-5-sulfonamide]"
